Columns and labels:
OCLN = assay: Modulation of OCLN gene expression of keratinocytes (real-time qPCR, RQ); format: cell-based, human; parameters: key: RQ: expression relative to DMSO vehicle control (qPCR); conditions: nHEK, 24 h
Method: (§1) Neonatal human epidermal keratinocytes (nHEK) were cultivated in an EpiLife® medium (Gibco) including an HKGS kit (Gibco) with 5% CO2 at 37° C. in accordance with the supplier's instructions. The cells were treated for 24 hours, with 0.0005% of the different dicaffeoylquinic acids from above dissolved in DMSO and DMSO alone as the vehicle control. Genomic target expression levels in treated cells were measured using a quantitative Real-Time PCR comparison to vehicle control treatment.
(§2) RNA was isolated using Qiagen's RNeasy® Mini Kit. The total RNA concentrations were measured using Eppendorf's μCuvetteG 1.0 and BioPhotometer, by measuring the absorption at 260 nm. Purity control values such as E260/280 and E260/230 were calculated simultaneously. Reverse transcription was performed using the high-capacity RNA-to-cDNA kit of Applied Biosystems, in accordance with the supplier's instructions. Samples were treated in Biometra's PCR Thermocycler. For fast real-time qPCR, the cDNA was diluted with RNase-free water, and the TaqMan™ Fast Universal PCR Master Mix of Applied Biosystems was used. Quantitative real time PCR was performed using the StepOnePlus fast real-time PCR instrument by Applied Biosystems. Analysis was conducted using the StepOne software and […] (normalised to endogenous control […] expression). For upregulations, RQ values ≥2.5 are considered to be relevant.
(§3) Neonatal human epidermal keratinocytes (nHEK) were cultivated as described in Example 1 and treated for 24 hours with 0.0007% of the different monocaffeoylquinic acids. Afterwards fast real-time qPCR was performed as described in above using a customised gene array.
(§4) Neonatal human epidermal keratinocytes (nHEK) were cultivated as described in Example 1 and treated for 24 hours with 0.005% of the extract samples. Afterwards fast real-time qPCR was performed as described in above using a customized gene array.
(§5) Neonatal human epidermal keratinocytes (nHEK) were cultivated as described in Example 1 and treated for 24 hours with 4,5-dicaffeoylquinic acid (CAS number 14534-61-3, Phytolab GmbH & Co. KG) and (±)-α-tocopherol (CAS number 10191-41-0, synonym: Synonym: DL-α-Tocopherol, Vitamin E, Sigma-Aldrich, synthetic) alone and in combination. Afterwards fast real-time qPCR was performed as described in above using a customised gene array.
(§6) [formula] • With • A=RQ value by 4,5-dicaffeoylquinic acid at concentration x • B=RQ value by tocopherol at concentration y • C=RQ value by the combination of 4,5-dicaffeoylquinic acid at concentration x/2 and tocopherol at concentration y/2 • D=Factor for 4,5-dicaffeoylquinic acid=>0.5 (due to half concentration tested in the combination) • E=Factor for tocopherol=>0.5 (due to half concentration tested in the combination) • A SI=1 is obtained for additive activity of the two combined components, whereas a SI <1 proves antagonistic activity (observed efficacy is lower than additive) and SI >1 proves synergistic activity (observed efficacy is higher than additive).
(§7) Neonatal human epidermal keratinocytes (nHEK) were cultivated as described above and treated for 24 hours with yarrow extract of example 3 (Achillea millefolium, freeze-dried fresh press juice of flowering aerials, cultivated in Germany) and (±)-α-tocopherol (CAS number 10191-41-0, synonym: Synonym: DL-α-Tocopherol, Vitamin E, Sigma-Aldrich, synthetic) alone and in two combinations. Afterwards fast real-time qPCR was performed as described in above using a customised gene array.

HSPB8 = assay: Modulation of HSPB8 gene expression of keratinocytes (real-time qPCR, RQ); format: cell-based, human; parameters: key: RQ: expression relative to DMSO vehicle control (qPCR); conditions: nHEK, 24 h
Method: as §1, §2, §3, §4, §5, §6, §7

DEFB1 = assay: Modulation of DEFB1 gene expression of keratinocytes (real-time qPCR, RQ); format: cell-based, human; parameters: key: RQ = expression relative to DMSO vehicle control (qPCR); conditions: nHEK, 24 h
Method: as §1, §2, §3, §5, §6, §7
as §7, with “(+)-α-tocopherol” for “(±)-α-tocopherol”, “59-02-9,” for “10191-41-0,”, “D-α-tocopherol,” for “DL-α-Tocopherol,”, “Sigma-Aldrich)” for “Sigma-Aldrich, synthetic)”, “combination.” for “two combinations.”

CRYAB = assay: Modulation of CRYAB gene expression of keratinocytes (real-time qPCR, RQ); format: cell-based, human; parameters: key: relative quantity (RQ) vs DMSO vehicle-treated control; conditions: nHEK, 24 h
Method: as §1, §2, §3, §4, §5, §6
(§8) Neonatal human epidermal keratinocytes (nHEK) were cultivated as described above and treated for 24 hours with 3,5-dicaffeoylquinic acid (CAS number 2450-53-5, Phytolab GmbH & Co. KG) and D-α-tocopherol (CAS number 59-02-9, synonym: (+)-α-tocopherol, Vitamin E, trade name: Copherol® F 1300 C, BTC Europe GmbH) alone and in combination. Afterwards fast real-time qPCR was performed as described in above using a customised gene array.
as §7, with “array. […]” for “array.”

CLDN1 = assay: Modulation of CLDN1 gene expression of keratinocytes (real-time qPCR, RQ); format: cell-based, human; conditions: nHEK, 24 h
Method: as §1, §2, §3, §4, §5, §6
(§9) Neonatal human epidermal keratinocytes (nHEK) were cultivated as described in Example 1 and treated for 24 hours with 3,4-dicaffeoylquinic acid (CAS number 57378-72-0, Phytolab GmbH & Co. KG) and (+)-α-tocopherol (CAS number 59-02-9, synonym: Synonym: D-α-tocopherol, Vitamin E, Sigma-Aldrich) alone and in combination. Afterwards fast real-time qPCR was performed as described in above using a customised gene array. For upregulations, RQ values ≥2.5 are considered to be relevant.
as §7

HSPB2 = assay: Modulation of HSPB2 gene expression of keratinocytes (real-time qPCR, RQ); format: cell-based, human; parameters: key: relative quantity vs DMSO vehicle control (qPCR); conditions: nHEK, 24 h
Method: as §1, §2, §3, §5, §6, §7

DSC1 = assay: Modulation of DSC1 gene expression of keratinocytes (real-time qPCR, RQ); format: cell-based, human; parameters: key: RQ: expression relative to DMSO vehicle control; conditions: nHEK, 24 h
Method: as §1, §2, §3, §4, §5, §6, §9
as §7, with “array. […]” for “array.”

DSG1 = assay: Modulation of DSG1 gene expression of keratinocytes (real-time qPCR, RQ); format: cell-based, human; parameters: key: relative quantity vs DMSO vehicle control (qPCR); conditions: nHEK, 24 h
Method: as §1, §2, §3, §4, §5, §6, §9
as §8, with “array. […]” for “array.”

[1] = test system: Neonatal human epidermal keratinocytes (nHEK); assay: Modulation of gene expression of keratinocytes, whole gene array (statements in words); format: cell-based; conditions: 24 h
Method: as §1, §2, §3, §4

[2] = 0.003% tocopherol alone, Example 8
[3] = 0.005% tocopherol alone, Example 7, Table 9
[4] = 0.005% tocopherol alone, Example 7, Table 10

O=C(/C=C/c1ccc(O)c(O)c1)O[C@H]1[C@H](O)C[C@](O)(C(=O)O)C[C@H]1OC(=O)/C=C/c1ccc(O)c(O)c1 [4,5-Dicaffeoylquinic acid, 4,5-dicaffeoylquinic acid]
RQ value OCLN (OCLN; 0.0005%, Example 1): 2.4
RQ value OCLN (OCLN; 0.0007% alone, Example 4): 3.4
RQ value HSPB8 (HSPB8; 0.0005%, Example 1): 4.2
RQ value HSPB8 (HSPB8; 0.0007% alone, Example 4): 6.2
RQ value DEFB1 (DEFB1; 0.0005%, Example 1): 3.2
RQ value DEFB1 (DEFB1; 0.0007% alone, Example 4): 4.3
RQ value CRYAB (CRYAB; 0.0005%, Example 1): 13.8
RQ value CRYAB (CRYAB; 0.0007% alone, Example 4): 21.1
RQ value CLDN1 (CLDN1; 0.0005%, Example 1): 3.5
RQ value CLDN1 (CLDN1; 0.0007% alone, Example 4): 2.4
RQ value HSPB2 (HSPB2; 0.0005%, Example 1): 4.3
RQ value HSPB2 (HSPB2; 0.0007% alone, Example 4): 5.7
RQ value DSC1 (DSC1; 0.0005%, Example 1): 18.1
RQ value DSC1 (DSC1; 0.0007% alone, Example 4): 25.0
RQ value DSG1 (DSG1; 0.0005%, Example 1): 10.6
RQ value DSG1 (DSG1; 0.0007% alone, Example 4): 11.1

O=C(/C=C/c1ccc(O)c(O)c1)O[C@H]1[C@H](O)C[C@](O)(C(=O)O)C[C@H]1O [4-caffeoyl-quinic acid, 4-caffeoylquinic acid]
RQ value OCLN (OCLN; 0.0007%, Example 2): 1.0
RQ value HSPB8 (HSPB8; 0.0007%, Example 2): 1.0
RQ value DEFB1 (DEFB1; 0.0007%, Example 2): 1.9
RQ value CRYAB (CRYAB; 0.0007%, Example 2): 1.9
RQ value CLDN1 (CLDN1; 0.0007%, Example 2): 0.8
RQ value HSPB2 (HSPB2; 0.0007%, Example 2): 2.2
RQ value DSC1 (DSC1; 0.0007%, Example 2): 2.2
RQ value DSG1 (DSG1; 0.0007%, Example 2): 1.9

O=C(/C=C/c1ccc(O)c(O)c1)O[C@@H]1C[C@@](O)(C(=O)O)C[C@@H](O)[C@@H]1O [5-caffeoyl-quinic acid, 5-caffeoylquinic acid]
RQ value OCLN (OCLN; 0.0007%, Example 2): 0.8
RQ value HSPB8 (HSPB8; 0.0007%, Example 2): 0.6
RQ value DEFB1 (DEFB1; 0.0007%, Example 2): 0.7
RQ value CRYAB (CRYAB; 0.0007%, Example 2): 0.7
RQ value CLDN1 (CLDN1; 0.0007%, Example 2): 0.8
RQ value HSPB2 (HSPB2; 0.0007%, Example 2): 1.0
RQ value DSC1 (DSC1; 0.0007%, Example 2): 0.7
RQ value DSG1 (DSG1; 0.0007%, Example 2): 0.5

Cc1c(C)c2c(c(C)c1O)CC[C@@](C)(CCC[C@H](C)CCC[C@H](C)CCCC(C)C)O2 [(+)-alpha-tocopherol, (+)-α-tocopherol]
RQ value DEFB1 (DEFB1; [2]): 0.8
RQ value CRYAB (CRYAB; [2]): 0.7
RQ value CRYAB (CRYAB; 0.01% alone, Example 6): 0.5
RQ value CLDN1 (CLDN1; 0.003% alone, Example 5): 0.4
relevant modulation of the selected genes (RQ ≥2.5) ([1]; tocopherol alone at 0.003%): does not relevantly modulate any of the selected genes
relevant modulation of the selected genes (RQ ≥2.5) ([1]; tocopherol alone at 0.01%): does not relevantly modulate any of the selected genes
RQ value DSC1 (DSC1; 0.003% alone, Example 5): 0.6
RQ value DSC1 (DSC1; [2]): 0.6
RQ value DSG1 (DSG1; 0.003% alone, Example 5): 0.4
RQ value DSG1 (DSG1; [2]): 0.4
RQ value DSG1 (DSG1; 0.01% alone, Example 6): 0.7

(±)-α-tocopherol [(±)-alpha-tocopherol]
RQ value OCLN (OCLN; 0.005% alone, Example 4): 1.7
RQ value OCLN (OCLN; [3]): 2.4
RQ value HSPB8 (HSPB8; 0.005% alone, Example 4): 1.0
RQ value HSPB8 (HSPB8; [3]): 1.2
RQ value HSPB8 (HSPB8; [4]): 2.3
RQ value DEFB1 (DEFB1; 0.005% alone, Example 4): 1.3
RQ value DEFB1 (DEFB1; [3]): 1.7
RQ value CRYAB (CRYAB; 0.005% alone, Example 4): 1.4
RQ value CRYAB (CRYAB; [3]): 1.3
RQ value CLDN1 (CLDN1; 0.005% alone, Example 4): 1.2
RQ value CLDN1 (CLDN1; [3]): 1.3
RQ value CLDN1 (CLDN1; [4]): 1.8
relevant modulation of the selected genes (RQ ≥2.5) ([1]; tocopherol alone at 0.005%): does not relevantly modulate any of the selected genes
RQ value HSPB2 (HSPB2; 0.005% alone, Example 4): 1.4
RQ value DSC1 (DSC1; 0.005% alone, Example 4): 1.1
RQ value DSC1 (DSC1; [3]): 1.3
RQ value DSC1 (DSC1; [4]): 1.9
RQ value DSG1 (DSG1; 0.005% alone, Example 4): 1.3
RQ value DSG1 (DSG1; [3]): 1.4
RQ value DSG1 (DSG1; [4]): 2.0
